Test results published in ChEMBL document CHEMBL1201862, “PubChem BioAssay data set” (2004).
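Tested at 5 concentrations; 48 h exposure; 96-well plates; endpoints linearly interpolated, else capped at highest concentration. GI50: concentration for 50% inhibition of growth.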 Activity calls are given as the source filed them. Cut-off read from the data, not from the text of the source: active = GI50 up to about 1.1 µM and inactive = higher.

Tests used:
Assay in all cases: NCI-60 cell line screen, 48 h
[1] = tested on: SF-268
[2] = tested on: A549
[3] = tested on: SF-539
[4] = tested on: HL-60
[5] = tested on: NCI/ADR-RES
[6] = tested on: MDA-MB-231
[7] = tested on: SN12C
[8] = tested on: CAKI-1
[9] = tested on: HCT-15
[10] = tested on: OVCAR-3
[11] = tested on: SW-620
[12] = tested on: MDA-MB-435
[13] = tested on: IGROV-1
[14] = tested on: MOLT-4
[15] = tested on: SK-MEL-28
[16] = tested on: U-251
[17] = tested on: UACC-62
[18] = tested on: KM12
[19] = tested on: HOP-92
[20] = tested on: A498

SMILES	GI50 [1]	GI50 [2]	GI50 [3]	GI50 [4]	GI50 [5]	GI50 [6]	GI50 [7]	GI50 [8]	GI50 [9] [µM]	GI50 [10]	GI50 [11]	GI50 [12]	GI50 [13]	GI50 [14]	GI50 [15]	GI50 [16]	GI50 [17]	GI50 [18]	GI50 [19]	GI50 [20]
CC(=O)NN(c1ccccc1)C1CCN(c2ccccc2)N1C(C)=O (stereo not drawn)	5.07 µM (inactive)	> 10 µM (inactive)	4.85 µM (inactive)	3.69 µM (inactive)	5.52 µM (inactive)	> 10 µM (inactive)	> 10 µM (inactive)	4.12 µM (inactive)	0.881	> 10 µM (inactive)	0.889 µM (active)	3.18 µM (inactive)	> 10 µM (inactive)	4.74 µM (inactive)	> 10 µM (inactive)	–	–	–	–	–
C/C(=C\CO)CC/C=C(\C)CNc1ccccc1	73.1 µM (inactive)	50.8 µM (inactive)	82.6 µM (inactive)	30.1 µM (inactive)	40.4 µM (inactive)	34.8 µM (inactive)	57.5 µM (inactive)	57.5 µM (inactive)	67.8	18.2 µM (inactive)	50.2 µM (inactive)	36.1 µM (inactive)	> 100 µM (inactive)	13 µM (inactive)	51.1 µM (inactive)	59.4 µM (inactive)	36.1 µM (inactive)	28.4 µM (inactive)	–	–
Oc1ccc2ccccc2c1/N=N\c1cccc2ccccc12	> 100 µM (inactive)	> 100 µM (inactive)	–	52.8 µM (inactive)	> 100 µM (inactive)	> 100 µM (inactive)	> 100 µM (inactive)	> 100 µM (inactive)	> 100	> 100 µM (inactive)	> 100 µM (inactive)	> 100 µM (inactive)	29.9 µM (inactive)	93.1 µM (inactive)	> 100 µM (inactive)	> 100 µM (inactive)	> 100 µM (inactive)	> 100 µM (inactive)	> 100 µM (inactive)	–
Cc1ccc(NC(=O)C23CC4CC(CC(C4)C2)C3)c(C(=O)NNC(=O)c2ccc(Cl)cc2)c1	23.8 µM (inactive)	20 µM (inactive)	18.1 µM (inactive)	28.3 µM (inactive)	21.2 µM (inactive)	15.5 µM (inactive)	28.4 µM (inactive)	23.3 µM (inactive)	17	20.7 µM (inactive)	26.2 µM (inactive)	17.3 µM (inactive)	< 0.01 µM (active)	21.5 µM (inactive)	–	17.2 µM (inactive)	19.5 µM (inactive)	21.3 µM (inactive)	9.48 µM (inactive)	–
CN(C)CCCN1N=Nc2cccc3cccc1c23	> 85.9 µM (inactive)	> 100 µM (inactive)	> 60.7 µM (inactive)	30.3 µM (inactive)	–	–	63.8 µM (inactive)	> 71.3 µM (inactive)	38.1	> 100 µM (inactive)	24.3 µM (inactive)	–	> 100 µM (inactive)	29 µM (inactive)	> 100 µM (inactive)	> 74.3 µM (inactive)	> 100 µM (inactive)	> 79.3 µM (inactive)	90.6 µM (inactive)	78.7 µM (inactive)
CC(=O)Oc1ccc2cc(Oc3ccc(Cl)c(Cl)c3)c(=O)oc2c1	34 µM (inactive)	31.3 µM (inactive)	19.7 µM (inactive)	60.5 µM (inactive)	–	27 µM (inactive)	24.9 µM (inactive)	20.3 µM (inactive)	14.6	22.9 µM (inactive)	33.3 µM (inactive)	–	29.4 µM (inactive)	18.3 µM (inactive)	25.3 µM (inactive)	16 µM (inactive)	–	18.5 µM (inactive)	20.3 µM (inactive)	22.3 µM (inactive)
CC(=O)OCC1OC(OC2CC3C(C)(C)C(OC(C)=O)CC[C@]3(C)C3CCC45CC4(CC[C@H]5C(C)CC(O)C4OC4(C)C)[C@]23C)C(O)C(O)C1O (stereo partly drawn)	2.44 µM (inactive)	2.09 µM (inactive)	3.89 µM (inactive)	1.18 µM (inactive)	–	–	2.29 µM (inactive)	4.32 µM (inactive)	1.55	2.58 µM (inactive)	2.43 µM (inactive)	–	0.0715 µM (active)	0.189 µM (active)	2.03 µM (inactive)	1.82 µM (inactive)	1.99 µM (inactive)	1.35 µM (inactive)	2.25 µM (inactive)	4.72 µM (inactive)
COc1ccc2c(=O)c(-c3cc(OC)c(OC)cc3OC)coc2c1	4.73 µM (inactive)	5.41 µM (inactive)	3.3 µM (inactive)	0.735 µM (active)	–	> 100 µM (inactive)	13.3 µM (inactive)	3.01 µM (inactive)	1.24	1.84 µM (inactive)	2.33 µM (inactive)	–	19.2 µM (inactive)	2 µM (inactive)	3.65 µM (inactive)	2.19 µM (inactive)	1.97 µM (inactive)	2.74 µM (inactive)	1.81 µM (inactive)	8.45 µM (inactive)
